Experimental data from patent publication US20120157500A1, “JAK INHIBITION BLOCKS RNA INTERFERENCE ASSOCIATED TOXICITIES” (priority 2009, published 2012).
pIC50: −log10 of the molar value.

Key:
[1] = test system: LF01-SSB-induced toxicities; test: LF01-SSB-induced toxicities in rats with or without inhibitor pretreatment; assay type: in vivo; conditions: for suppression of cytokine release, elevation of serum transaminases, thrombocytopenia or coagulopathy induced by LF01-SSB: pretreatment before LF01-SSB 3 mg/kg
Experimental: Rat studies. All animal studies were conducted at AAALAC-accredited Merck Research laboratories' animal facility located at West Point, Pa., and all study protocols were approved by Merck West Point Institutional Animal Care and Use Committee (IACUC). Female Sprague-Dawley (SD) rats obtained from Charles River were used in these studies at an age of 4-6 weeks and with a body weight of 120-160 grams. Anti-inflammation agents were administrated using the dosing regimens listed in Table 1, 1 hr prior to tail vein injection of liposomal siRNA nanoparticles in PBS in a volume of 0.8 ml under normal pressure. At 3 hr post injection of liposomal siRNA, ˜0.2 ml blood was collected by retro-orbital bleed under anesthesia and processed as plasma for the assessment of cytokines. […] For visual examination of urine color, rats were housed in metabolic cages to collect urine over a course of 24 hours after injection of liposomal siRNA nanoparticles. Animals were examined 3 times a day for detection of lethality over a course of 96 hours.
Analyses of rat blood samples. Cytokines in plasma were quantified using a microsphere bead-based, multiplexed assay, Milliplex™ RCYTO-80K-PMX23 (Millipore) which allows simultaneous quantification of 23 rat cytokines including IFNγ, IL-6, MCP-1 and TNFα. All CBC, coagulation and serum chemistry parameters were analyzed by Merck Laboratory of Animal Resources and the Safety Assessment Department at West Point, Pa. CBC was determined on whole blood placed in an EDTA-treated tube using an Advia 120 Hematology Analyzer (Siemens). Coagulation parameters in citrated plasma were assessed with a Behring Coagulation System (Siemens) and serum chemistry evaluation was conducted with an Advia 1800 Clinical Chemistry Analyzer (Siemens).
TUNEL (Terminal deoxynucleotidyl transferase-mediated dUTP-biotin Nick End Labeling). TUNEL staining in tissue sections was performed using a ‘TACS™ TdT-Blue Label in Situ Apoptosis Detection Kit’ (Trevigen). Briefly, 5 μm paraffin embedded sections of liver tissue were deparaffinized, fixed, labeled, and counterstained according to the manufacturer's recommendations. In Situ labeling procedure includes extension of 3′ ends with Biotin-dNTP (TdT Labeling Rxn), followed by additions of Strep-HRP and “TACS-Blue” Label or DAB for color development. TUNEL signal was quantified using the Arial system (Applied Imaging). Quantification of mRNA. qRT-PCR assays were used to quantify SSB and ApoB mRNA levels relative to the housekeeping gene Ppib in lysates prepared from tissues using kits from Applied Biosystems. The catalog numbers are Rn0057621_g1 for SSB, Rn01499054_m1 for ApoB and Rn03302274_m1 for Ppib.

[2] = test system: LF01-SSB-induced lethality and visible hematuria; test: Suppression of LF01-SSB-induced lethality and visible hematuria by inhibitors; assay type: in vivo; conditions: rats; for Rescue effect: Death, +inhibitor/−inhibitor / Rescue effect: Red urine, +inhibitor/−inhibitor: inhibitor 1 hr prior to LF01-SSB 9 mg/kg IV, animals with inhibitor/without inhibitor; for Rescue effect: Death, +inhibitor/−inhibitor: deaths until 96 hr; for Rescue effect: Red urine, +inhibitor/−inhibitor: urine collected over 24 hr
Source text: Since LF01-siRNA nanoparticles provoked lethality and multifactorial toxicities involving different systems in rats, this offers an in vivo model for pharmacologically probing the mechanism that triggers LF01-siRNA toxicities. We first evaluated the suppression of LF01-SSB-induced lethality and visible hematuria by anti-inflammation drugs and pathway-specific inhibitors of the innate immune system as shown in Table 1. […] Rats were pre-dosed with either a vehicle or one of these reagents using the dosing regimen listed in Table 1, followed by an IV dose of LF01-SSB at 9 mpk 1 hr later, and animals were monitored for lethality for 96 hr. In addition, urine was collected over the course of 24 hr for visual observation of hematuria.
Rats were dosed with PBS or one of these inhibitors 1 hr prior to IV administration of PBS or […] at 9 mg/kg. Urine samples were collected over a course of 24 hr for visual examination of hematuria (red urine). Animals were monitored for lethality until 96 hr post LF01-SSB dose. Unscheduled deaths and cases of visible hematuria in animals receiving LF01-SSB with or without inhibitor pretreatment were scored and presented.
Rat studies. All animal studies were conducted at AAALAC-accredited Merck Research laboratories' animal facility located at West Point, Pa., and all study protocols were approved by Merck West Point Institutional Animal Care and Use Committee (IACUC). Female Sprague-Dawley (SD) rats obtained from Charles River were used in these studies at an age of 4-6 weeks and with a body weight of 120-160 grams. Anti-inflammation agents were administrated using the dosing regimens listed in Table 1, 1 hr prior to tail vein injection of liposomal siRNA nanoparticles in PBS in a volume of 0.8 ml under normal pressure. At 3 hr post injection of liposomal siRNA, ˜0.2 ml blood was collected by retro-orbital bleed under anesthesia and processed as plasma for the assessment of cytokines. At 24 hr, blood was collected for evaluation of complete blood cell counts (CBC), coagulation parameters and serum chemistry by venipuncture under anesthesia followed by exsanguination, and tissues from liver, spleen and kidney were collected for determination of SSB and ApoB mRNA levels and TUNEL analysis. For visual examination of urine color, rats were housed in metabolic cages to collect urine over a course of 24 hours after injection of liposomal siRNA nanoparticles. Animals were examined 3 times a day for detection of lethality over a course of 96 hours.

[3] = molecular target: T1, IKK2 (Homo sapiens, UniProt O14920); conditions: Table 1, from former studies; cited from earlier work
T1 sequence (O14920 1-756): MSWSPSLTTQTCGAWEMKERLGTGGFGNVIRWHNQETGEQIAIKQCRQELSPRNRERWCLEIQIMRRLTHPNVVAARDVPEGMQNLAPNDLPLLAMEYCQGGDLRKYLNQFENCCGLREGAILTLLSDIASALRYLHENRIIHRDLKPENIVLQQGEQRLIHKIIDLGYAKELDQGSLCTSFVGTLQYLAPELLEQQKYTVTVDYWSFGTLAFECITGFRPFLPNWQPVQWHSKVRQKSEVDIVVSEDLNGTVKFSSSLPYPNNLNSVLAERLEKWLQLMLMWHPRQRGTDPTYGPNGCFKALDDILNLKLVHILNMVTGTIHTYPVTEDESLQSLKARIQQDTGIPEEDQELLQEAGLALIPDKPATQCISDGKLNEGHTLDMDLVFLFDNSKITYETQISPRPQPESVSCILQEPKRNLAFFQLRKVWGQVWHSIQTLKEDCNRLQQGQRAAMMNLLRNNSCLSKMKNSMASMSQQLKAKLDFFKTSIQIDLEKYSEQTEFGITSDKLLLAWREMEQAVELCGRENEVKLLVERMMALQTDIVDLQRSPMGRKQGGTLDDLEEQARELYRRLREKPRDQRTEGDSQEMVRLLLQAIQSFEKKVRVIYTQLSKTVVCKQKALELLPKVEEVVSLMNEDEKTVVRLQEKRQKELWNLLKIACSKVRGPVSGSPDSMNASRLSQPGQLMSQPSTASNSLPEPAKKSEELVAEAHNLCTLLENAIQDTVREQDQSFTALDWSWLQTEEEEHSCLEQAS

[4] = molecular target: T2, IKK1 (Homo sapiens, UniProt O15111); conditions: Table 1, from former studies; cited from earlier work
T2 sequence (O15111 1-745): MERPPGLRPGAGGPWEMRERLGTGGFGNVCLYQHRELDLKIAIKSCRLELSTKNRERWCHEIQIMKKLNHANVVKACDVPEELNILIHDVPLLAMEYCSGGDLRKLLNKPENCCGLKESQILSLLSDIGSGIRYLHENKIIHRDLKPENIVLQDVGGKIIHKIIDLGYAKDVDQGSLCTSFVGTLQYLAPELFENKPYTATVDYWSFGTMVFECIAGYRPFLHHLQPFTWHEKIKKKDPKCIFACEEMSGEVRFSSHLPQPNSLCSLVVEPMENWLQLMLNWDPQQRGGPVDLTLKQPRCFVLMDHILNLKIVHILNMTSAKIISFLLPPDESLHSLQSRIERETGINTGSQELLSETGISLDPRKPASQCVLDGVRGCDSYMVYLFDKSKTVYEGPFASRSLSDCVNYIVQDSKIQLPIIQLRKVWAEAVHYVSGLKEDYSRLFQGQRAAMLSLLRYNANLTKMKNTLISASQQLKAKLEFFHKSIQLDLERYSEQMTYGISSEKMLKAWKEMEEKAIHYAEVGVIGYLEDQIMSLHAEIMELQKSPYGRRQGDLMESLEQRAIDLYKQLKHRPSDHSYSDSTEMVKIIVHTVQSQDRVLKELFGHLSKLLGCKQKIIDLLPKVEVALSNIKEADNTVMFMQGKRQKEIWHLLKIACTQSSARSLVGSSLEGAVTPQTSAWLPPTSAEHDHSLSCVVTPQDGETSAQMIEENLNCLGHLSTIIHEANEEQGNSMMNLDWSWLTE

Row | SMILES | suppression of cytokine release, elevation of serum transaminases, thrombocytopenia or coagulopathy induced by LF01-SSB ([1]; rats) | Rescue effect: Death, +inhibitor/−inhibitor [2] | Rescue effect: Red urine, +inhibitor/−inhibitor [2] | effect on LF01-SSB-induced coagulopathy (elongation of aPTT) ([1]; rats, pre-dosed 1 hr prior to LF01-SSB 3 mg/kg IV, 24 hr) | pIC50 [3] | pIC50 [4] | effect on LF01-SSB toxic responses (cytokine induction, ALT and AST elevation, thrombocytopenia, elongation of aPTT, hepatic and splenic cell death) ([1]; rat, in vivo) | effect on LF01-SSB-induced lethality and visible hematuria ([2]; pre-dosed 1 hr before LF01-SSB 9 mpk IV, monitored 96 hr) | effect on LF01-SSB-induced coagulopathy (elongation of aPTT) ([1]; rat, in vivo) | effect on LF01-siRNA induction of IL-6 ([1]; rats, plasma 3 hr post LF01-SSB dose)
1 | Cc1ccc(-c2ncc(Cl)cc2-c2ccc(S(C)(=O)=O)cc2)cn1 [Etoricoxib] | no appreciable suppression | 4/3 | 4/4 | – | – | – | – | – | – | –
2 | N=C(N)NN [Aminoguanidine] | no appreciable suppression | 4/3 | 2/3 | – | – | – | – | – | – | –
3 | N.S=C(S)N1CCCC1 [PDTC] | – | 4/5 | 3/5 | no mitigation effect | 7.70 | 6.40 | – | – | – | –
4 | C[C@@H]1CCN(C(=O)CC#N)C[C@@H]1N(C)c1ncnc2[nH]ccc12 [CP-690550] | – | 0/4 | 0/4 | – | – | – | suppression of toxic responses | prevented | – | –
5 | C[S+]([O-])c1ccc(-c2nc(-c3ccncc3)c(-c3ccc(F)cc3)[nH]2)cc1 (stereo not shown) [SB-203580] | – | 2/5 | 2/5 | – | – | – | – | – | no mitigation effect | abrogated
